Test results reported in US10787423B2, “Piperazine and piperidine derivatives, their synthesis and use thereof in inhibiting VDAC oligomerization, apoptosis and mitochondria dysfunction” (THE NATIONAL INSTITUTE FOR BIOTECHNOLOGY IN THE NEGEV LTD., priority 2015, dated 2020).

Legend:
HeLa cells = assay: Selenite-induced cell death in HeLa cells, PI staining and flow cytometry; assay type: cell-based; details: 22 h with selenite 8 μM and increasing concentrations
Procedure: Cells, e.g. HeLa cells (2×10^5), untreated or treated with apoptosis-inducing reagents, were analyzed for apoptotic cell death using PI, annexin V-FITC and flow cytometer analysis. Cells were collected (1500×g for 10 min), washed, and resuspended in 200 μl binding buffer (10 mM HEPES/NaOH, pH 7.4, 140 mM NaCl, and 2.5 mM CaCl2). Annexin V-FITC was added according to the recommended Protocol (Enzo Life Sciences, Switzerland), and the cells were incubated in the dark for 15 min. Cells were then washed with binding buffer and resuspended in 200 μl binding buffer, to which PI was added immediately before flow cytometry analysis. At least 10,000 events were collected, recorded on a dot plot, and analyzed by the FACSCalibur™ flow cytometer software (BD Biosciences, Franklin Lakes, N.J.).
HeLa cells were incubated with varying concentrations (2-20 μM) of racemic compound of Formula 1 (VBIT-4) and of the enantiomers of compound of Formula 1 (VBIT-4-1 and VBIT-4-2) for 1 hour, and then with or without selenite (25 μM, 3 hours). Cells were harvested and assayed for apoptotic cell death, using PI staining and FACS analysis. The results shown in the FIG. 14b correspond to means±SD (n=3).
Cells (2.5 mg/ml) were washed with and resuspended in PBS, pH 8.3 and incubated with membrane-permeable cross-linker EGS (250 μM) at 30° C. for 15 min and then subjected to SDS-PAGE and immunoblotting using anti-VDAC1 antibodies. Several anti-VDAC1 antibody-labeled protein bands were obtained upon exposure to the apoptosis stimuli that are correspond to VDAC1 dimers, trimers, tetramers and multimers. Cell death as induced by selenite and inhibited by the compound of Formula 3 (VBIT-12) or compound of Formula 11 (DIV00781) is shown (FIG. 21B), with closed circles corresponding to the compound of Formula 3 and open circles corresponding to the compound of Formula 11. Cell death was analyzed using propidium iodide (PI) staining and flow cytometry.

[1] = molecular target: T1, rVDAC1-GFP2 / rVDAC1-Rluc in T-REx-293 cells (Rattus norvegicus, UniProt Q9Z2L0); assay: BRET2 assay of VDAC1 oligomerization induced by apoptosis inducers (Method A); assay type: cell-based; details: test compound 10 μM, 1 h pre-incubation; for BRET2, % of inhibition, As2O3: As2O3 60 μM (3 h); for BRET2, % of inhibition, STS: STS 1 μM (3 h); for BRET2, % of inhibition, Selenite: selenite 30 μM (3 h)
T1 construct: The rVDAC1 gene was cloned into BamHI and HindIII sites of the BRET2 plasmids (N2 variants); expressed in transfected cells; host or cells: T-REx-293 cells stably expressing hVDAC1-shRNA (T-REx-pS10)
Source text: BRET2 screening may be carried out as described in the art ([…] et al., (2010) Oligomerization of the mitochondrial protein voltage-dependent anion channel is coupled to the induction of apoptosis. Mol Cell Biol 30, 5698-5709). Plasmids encoding the fusion proteins rat(r)VDAC1-GFP2 and rVDAC1-luc were constructed using the BRET2 plasmids (Perkin Elmer, Waltham, Mass.). The rVDAC1 gene was cloned into BamHI and HindIII sites of the BRET2 plasmids (N2 variants) and amplified using the forward primer [NT] and the reverse primer [NT]. […] The cells were transfected using calcium phosphate method. Transfections were carried out with 0.2 μg of a plasmid coding for rVDAC1-Rluc and with 0.8 μg of a plasmid coding for rVDAC1-GFP2. As a negative control, cells were transfected with plasmids encoding for rVDAC1-Rluc (0.2 μg DNA) and GFP2 (0.8 μg). In another control (control cells), cells were also transfected with a plasmid encoding for rVDAC1-luc (0.2 μg) and plasmid pcDNA4/TO (0.8 μg). The BRET2 signal represents the ratio of the GFP2 fluorescence, measured at its emission wavelength (510 nm), over the light intensity (luminescence) emitted at 395 nm. All measurements were performed using the Infinite 200 ELISA reader (Tecan). BRET2 signals were defined as GFP2/Rluc intensity ratio and calculated as follows: DNA encoding fusion proteins rVDAC1-Rluc (in which RLuc was connected to rVDAC1 at the C terminal position through a linker (GGGS)) and rVDAC1-GFP2 (in which the GFP2 was fused to the rVDAC1 C terminus) was cloned into BRET2 vectors. rVDAC1-GFP2 and rVDAC1-Rluc were expressed in T-REx-293 cells stably expressing shRNA-hVDAC1 and a low level of endogenous hVDAC1 (referred to as T-REx-pS10 cells) hVDAC1-shRNA, being specific to human VDAC1, allowed the expression of rVDAC1 and decreased the participation of endogenous hVDAC1 in oligomerization, thereby enhancing the BRET2 signal. rVDAC1-GFP2 and rVDAC1-Rluc expression levels were correlated with the amount of plasmids used. […] Following incubation, cells were harvested using trypsin, washed twice with PBS by centrifugation at 1000×g, 5 min, resuspended in 200 μl of PBS and divided between two wells of a 96-well clear-bottom plate (Grenier). […] The screening was conducted using BRET2 assay as described above. […] After treatment, the medium was removed and assayed for BRET2 signals as described above. Liquid handling was done with the Tecan (Männedorf, Switzerland) Freedom 150 Robotic & MCA Liquid Handling System, while luciferase luminescence and fluorescence readings were obtained a robot-integrated Tecan Infinite M1000 reader. Method A was used for screening of VDAC1 oligomerization inhibitors. […] Table 2 provides a summary of BRET2-based screen results of the anti-VDAC1 oligomerization activity of compounds from the NCI library. Results are presented as percent inhibition of the BRET2 signal induced by the indicated pro-apoptotic agent.

T1 sequence (Q9Z2L0 with tags, fused parts or gaps limits assumed): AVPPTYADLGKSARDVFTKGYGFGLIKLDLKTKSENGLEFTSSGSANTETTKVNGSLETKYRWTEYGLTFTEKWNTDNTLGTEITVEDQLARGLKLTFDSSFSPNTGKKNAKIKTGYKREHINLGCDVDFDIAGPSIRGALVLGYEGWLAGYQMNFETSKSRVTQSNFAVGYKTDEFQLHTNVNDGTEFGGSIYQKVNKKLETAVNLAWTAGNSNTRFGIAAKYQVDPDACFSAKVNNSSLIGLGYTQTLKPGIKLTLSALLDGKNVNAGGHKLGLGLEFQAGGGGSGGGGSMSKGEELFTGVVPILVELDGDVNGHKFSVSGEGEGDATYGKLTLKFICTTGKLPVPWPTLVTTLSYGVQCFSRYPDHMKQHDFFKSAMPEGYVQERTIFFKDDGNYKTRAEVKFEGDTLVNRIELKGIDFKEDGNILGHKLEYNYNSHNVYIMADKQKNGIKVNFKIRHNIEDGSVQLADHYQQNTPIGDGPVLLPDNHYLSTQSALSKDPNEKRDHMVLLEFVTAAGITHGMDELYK

| Compound | cell death as induced by selenite (HeLa cells) | BRET2, % of inhibition, As2O3 [1] [%] | BRET2, % of inhibition, STS [1] [%] | BRET2, % of inhibition, Selenite [1] [%] |
| --- | --- | --- | --- | --- |
| O=C(O)CN1CN(c2ccccc2)C2(CCN(Cc3cccc4ccccc34)CC2)C1=O [Formula 11] | inhibited |  |  |  |
| CCOc1ccc(/C=C2\CCc3ccccc3C2=O)cc1 [NSC 252172] |  | 83.1 | 44.1 | 50 |
| O=C(Oc1ccc(NC(=O)c2cc3c(cc2Br)OCO3)cc1)c1ccccc1 [NSC 268487] |  | 86.7 | 0 | 69.4 |
| Nc1cc2c3c(cccc3c1)C(=O)N(CCN1CCCC1)C2=O [NSC 308849] |  | 99.5 | 0 | 0 |
| CCN(CC)Cc1cc2[nH]c3c4ccc(Cl)cc4ncc3c2cc1OC [NSC 317605] |  | 46 | 0.3 | 52 |
| Cc1ccc(NC(=O)Nc2nc3ccccc3s2)cc1NC(=O)Nc1nc2ccccc2s1 [NSC 319990] |  | 96.2 | 22 | 43.2 |
| Clc1ccc(-c2nc(-c3cc4cc(Cl)ccc4o3)cs2)cc1 [NSC 321502] |  | 67.3 | 22.4 | 46.5 |
| O=C(c1cccnc1)c1cc(-c2ccccn2)c(=O)n2ccccc12 [NSC 324623] |  | 78 | 0 | 16.3 |
| O=C(Nc1ccc(Cl)c([N+](=O)[O-])c1)Nc1nc2ccccc2s1 [NSC 329249] |  | 82.8 | 12.1 | 22.4 |
| Nc1nc(Nc2ccccc2)n[nH]1 [NSC 331208] |  | 86.4 | 0 | 28.3 |
| O=C(Nc1ccccc1-c1ccccc1)C(=O)Nc1ccccc1-c1ccccc1 [NSC 338042] |  | 44.7 | 0 | 80.2 |
| COC(=O)C1(C)Cc2cc(OC(C)=O)c(OC(C)=O)cc2N1 (stereo not shown) [NSC 341956] |  | 51.5 | 0 | 24 |
| CCOc1cccc(/C=C2\NC(=S)N(c3ccccc3)C2=O)c1O [NSC 343966] |  | 39.4 | 0 | 20.1 |
| COc1ccc(C2OC3=C(Nc4cc(C)c(C)cc4N3)C2=O)cc1 (stereo not shown) [NSC 372275] |  | 72.5 | 28.5 | 46.5 |
| O=[N+]([O-])c1ccc(-c2ncc(-c3ccc(Br)cc3)o2)cc1 [NSC 372767] |  | 77.3 | 0 | 26.6 |
| C=CCNC(=O)c1ccc(OC)cc1 [NSC 404057] |  | 74.6 | 0 | 37.1 |
| O=C(Nc1ccc(Cl)c(Cl)c1)Nc1ccccc1O [NSC 522131] |  | 86.8 | 0 | 47.6 |
| O=C(Nc1ccc(Br)c2ccccc12)c1ccc2ccccc2c1O [NSC 601359] |  | 97.7 | 46 | 74.4 |
| c1ccc2c(c1)[nH]c1c3ccccc3sc21 [NSC 605333] |  | 63.7 | 0 | 16 |
| CC(=O)N1C=Cc2c(c(C)c3c([nH]c4ccccc43)c2C)C1 [NSC 657149] |  | 88.3 | 0 | 25.3 |
| CN(C)c1cccc(/C=C(\C#N)c2ccccc2)c1 [NSC 667251] |  | 77.5 | 1.4 | 0 |
| COC(=NC(C)C)NC(C)C [NSC 672441] |  | 69.6 | 0 | 41.8 |
| CN(C)c1ccc(N=Nc2cccc3ccoc23)cc1 [NSC 680515] |  | 87.8 | 33.4 | 66.3 |
